From patent publication US11712443B2, “17α-monoesters and 17α,21-diesters of cortexolone for use in the treatment of tumors” (COSMO TECHNOLOGIES LTD., priority 2014, dated 2023)

Legend:
[1] = system: MCF7; test: In vitro proliferation / cytotoxic assay on breast cancer cells (cell titer glo); conditions: human, 3 days
Protocol: For the cytotoxic assay: cells seeded in 96 well flat bottom culture plates in media containing charcoal stripped serum. After 24 hours test compounds were added to the cells. DMSO was used as the vehicle negative control and RU486 as the positive control. After 72 hours incubation cell were harvested, lysed and viability determined using the cell titer glow assay for viability.

[2] = system: Caspase 8 and Caspase 9; test: Caspase activity assay in MiaPaca2 cells; assay type: cell-based; conditions: 20 or 50 μM, evident after 8 hours, corrected for viable cells
Protocol: To better analyze the phenomenon the enzymatic activity of Caspase 8 (initiator caspase for Extrinsic Pathway) and Caspase 9 (initiator caspase for Intrinsic Pathway) and of Caspases 3 and 7 (effector caspases) were measured.
After 8, 24, & 48 hours incubation with test compounds, cells were lysed in buffer containing the caspase 3/7 or 8 or 9 substrate and a stable luciferase in proprietary buffers. The lysates were transferred to white opaque plates before measuring luminescence in a Tecan S afire instrument. Parallel plates treated identically, were used to determine viable cells. All caspase activities were corrected for the number of viable cells.

[3] = In vitro metabolism in rat plasma; assay type: in vitro ADME; conditions: 37 C; liquid chromatography; FIG. 13
Protocol: To obtain some insights on the metabolism of CB-03-10 in human and rat plasma, a specific assay was designed. Briefly the compound was incubated at different time in human and rat plasma at 37 C. After incubation the samples were tested for presence of the intact compound by liquid chromatography.

[4] = system: BxPC3; conditions: human, 3 days
[5] = system: HT29; test: MTT colorimetric assay, 72 h; assay type: cell-based; conditions: human, 72 h
Protocol: The experiment was performed to test and define anticancer activity in vitro of Cortexolone 17α-benzoate and cortexolone 17α-valerate-21-propionate on cell lines representatives of epithelial intestinal tumors, namely HT29. The experiment method consisted in: • 1. Monolayer HT-29 cells were plated in: 96-wells plates at the density of 2×10^4 cells/mL. The cells plated were kept at 37° C. in 5% CO2 and left to attach for 24 h. • 2. […] After 72 h of treatment, the MTT colorimetric assay was performed.

[6] = system: Panc1; conditions: human, 3 days
[7] = In vivo pharmacokinetic in mouse plasma; conditions: mice; iv 20 mg/kg, SC 40 mg/kg, PO 40 mg/kg; after 1 hour
Protocol: The pharmacokinetic of CB-03-10 was evaluated in plasma of mice after intravenous (IV), subcutaneous (SC) and oral administration (PO).
Mice (3 per group) were administered with the following doses, blood was collected at the indicated times. Plasma samples were analyzed by HPLC-MS/MS.

SMILES: CCCCC(=O)O[C@]1(C(=O)COC(=O)CC)CC[C@H]2[C@@H]3CCC4=CC(=O)CC[C@]4(C)[C@H]3CC[C@@]21C [CB-03-10, cortexolone 17α-valerate-21-propionate]
- Therapeutic Index = IC50 resting PBMC/IC50 cancer cell [1]: 3
- Therapeutic Index = IC50 stimulated PBMC/IC50 cancer cell [1]: 3
- caspase 8 and 9 activity, increase compared to control [2]: ≤ 7 fold
- degradation in rat plasma [3]: degraded more rapidly in rat compared to human plasma
- Therapeutic Index = IC50 resting PBMC/IC50 cancer cell [4]: 3
- Therapeutic Index = IC50 stimulated PBMC/IC50 cancer cell [4]: 3
- Therapeutic Index (TI), Stimulated PBMC [5]: 3
- TI on Resting PBMC [6]: 2
- TI on Stimulated PBMC [6]: 2
- Therapeutic Index = IC50 resting PBMC/IC50 cancer cell [6]: 2
- Therapeutic Index = IC50 stimulated PBMC/IC50 cancer cell [6]: 2
- plasma level of intact compound [7]: undetectable
